In the NIST ThermoML archive (doi:10.1016/j.jct.2018.03.013):

Experiment: xn = mol fraction of the nth substance listed
Details: 100 kPa, Liquid; for speed of sound: Frequency=3 MHz, Linear variable-path acoustic interferometer; for mass density: Pycnometric method

C=C(C)C(=O)OCC [ethyl 2-methylpropenoate] + CC#N
Details	mass density [kg/m3]	speed of sound [m/s]
293.15 K, x2 = 0	912.3	1196.8
293.15 K, x2 = 0.0556	909.47	1200.9
293.15 K, x2 = 0.1112	906.38	1205
293.15 K, x2 = 0.1631	903.24	1208.8
293.15 K, x2 = 0.2147	899.86	1212.6
293.15 K, x2 = 0.2795	895.21	1217.4
293.15 K, x2 = 0.3446	890.04	1222.2
293.15 K, x2 = 0.4132	883.98	1227.4
293.15 K, x2 = 0.4819	877.18	1232.8
293.15 K, x2 = 0.5597	868.44	1239.5
293.15 K, x2 = 0.6375	858.38	1246.9
293.15 K, x2 = 0.7251	845.11	1256.4
293.15 K, x2 = 0.8113	829.5	1267.7
293.15 K, x2 = 0.9014	809.62	1282.6
293.15 K, x2 = 0.9542	795.78	1293.4
298.15 K, x2 = 0	907.18	1176.9
298.15 K, x2 = 0.0556	904.36	1181
298.15 K, x2 = 0.1112	901.28	1185.1
298.15 K, x2 = 0.1631	898.14	1188.8
298.15 K, x2 = 0.2147	894.76	1192.5
298.15 K, x2 = 0.2795	890.11	1197.2
298.15 K, x2 = 0.3446	884.94	1201.9
298.15 K, x2 = 0.4132	878.87	1207
298.15 K, x2 = 0.4819	872.05	1212.3
298.15 K, x2 = 0.5597	863.29	1218.8
298.15 K, x2 = 0.6375	853.22	1226
298.15 K, x2 = 0.7251	839.92	1235.4
298.15 K, x2 = 0.8113	824.27	1246.5
298.15 K, x2 = 0.9014	804.36	1261.1
298.15 K, x2 = 0.9542	790.5	1271.8
303.15 K, x2 = 0	902.06	1157.6
303.15 K, x2 = 0.0556	899.25	1161.8
303.15 K, x2 = 0.1112	896.18	1165.9
303.15 K, x2 = 0.1631	893.05	1169.6
303.15 K, x2 = 0.2147	889.66	1173.3
303.15 K, x2 = 0.2795	885.01	1177.9
303.15 K, x2 = 0.3446	879.82	1182.6
303.15 K, x2 = 0.4132	873.74	1187.7
303.15 K, x2 = 0.4819	866.92	1193
303.15 K, x2 = 0.5597	858.14	1199.5
303.15 K, x2 = 0.6375	848.05	1206.7
303.15 K, x2 = 0.7251	834.72	1216.2
303.15 K, x2 = 0.8113	819.05	1227.4
303.15 K, x2 = 0.9014	799.1	1242.2
303.15 K, x2 = 0.9542	785.22	1252.9
308.15 K, x2 = 0	896.94	1139.4
308.15 K, x2 = 0.0556	894.14	1143.6
308.15 K, x2 = 0.1112	891.07	1147.7
308.15 K, x2 = 0.1631	887.95	1151.4
308.15 K, x2 = 0.2147	884.57	1155
308.15 K, x2 = 0.2795	879.91	1159.6
308.15 K, x2 = 0.3446	874.71	1164.3
308.15 K, x2 = 0.4132	868.61	1169.3
308.15 K, x2 = 0.4819	861.78	1174.6
308.15 K, x2 = 0.5597	852.99	1181
308.15 K, x2 = 0.6375	842.87	1188.1
308.15 K, x2 = 0.7251	829.52	1197.5
308.15 K, x2 = 0.8113	813.82	1208.6
308.15 K, x2 = 0.9014	793.83	1223.4
308.15 K, x2 = 0.9542	779.93	1234.1
313.15 K, x2 = 0	891.83	1121.5
313.15 K, x2 = 0.0556	889.04	1125.6
313.15 K, x2 = 0.1112	885.98	1129.8
313.15 K, x2 = 0.1631	882.85	1133.5
313.15 K, x2 = 0.2147	879.47	1137.1
313.15 K, x2 = 0.2795	874.81	1141.7
313.15 K, x2 = 0.3446	869.6	1146.3
313.15 K, x2 = 0.4132	863.49	1151.3
313.15 K, x2 = 0.4819	856.64	1156.5
313.15 K, x2 = 0.5597	847.83	1162.9
313.15 K, x2 = 0.6375	837.7	1169.9
313.15 K, x2 = 0.7251	824.32	1179.2
313.15 K, x2 = 0.8113	808.59	1190.3
313.15 K, x2 = 0.9014	788.57	1205
313.15 K, x2 = 0.9542	774.64	1215.7
318.15 K, x2 = 0	886.71	1104.6
318.15 K, x2 = 0.0556	883.94	1108.7
318.15 K, x2 = 0.1112	880.88	1112.8
318.15 K, x2 = 0.1631	877.75	1116.5
318.15 K, x2 = 0.2147	874.37	1120.1
318.15 K, x2 = 0.2795	869.7	1124.6
318.15 K, x2 = 0.3446	864.49	1129.2
318.15 K, x2 = 0.4132	858.37	1134.1
318.15 K, x2 = 0.4819	851.5	1139.2
318.15 K, x2 = 0.5597	842.68	1145.4
318.15 K, x2 = 0.6375	832.52	1152.3
318.15 K, x2 = 0.7251	819.12	1161.4
318.15 K, x2 = 0.8113	803.35	1172.3
318.15 K, x2 = 0.9014	783.3	1186.7
318.15 K, x2 = 0.9542	769.35	1197.3
